Measurements taken from ChEMBL document CHEMBL1201862, “PubChem BioAssay data set” (2004).
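The compound was tested at five concentrations on cells cultured in 96-well plates, with a 48-hour exposure period. GI50 = concentration required for 50% inhibition of growth.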 Active and inactive are the calls of the source. Rule as the data show it: active = GI50 up to about 1.1 µM and inactive = higher.

Columns and labels:
Assay in all cases: NCI anticancer screen, dose series, 48 h
DLD-1 = system: DLD-1
DMS-273 = system: DMS-273
HOP-18 = system: HOP-18
M19-MEL = system: M19-MEL
XF498 = system: XF498
DMS-114 = system: DMS-114
KM-20L2 = system: KM-20L2
LXFL 529 = system: LXFL 529
RXF 631 = system: RXF 631

Structure (SMILES)	GI50 (DLD-1)	GI50 (DMS-273)	GI50 (HOP-18)	GI50 (M19-MEL)	GI50 (XF498)	GI50 (DMS-114)	GI50 (KM-20L2)	GI50 (LXFL 529)	GI50 (RXF 631)
COC(=O)CCC(=O)N1Cc2cc(C)ccc2N(C(=O)CCC(=O)OC)Cc2cc(C)ccc21	> 100 µM (inactive)	> 100 µM (inactive)	> 100 µM (inactive)	> 100 µM (inactive)	> 100 µM (inactive)				
COc1ccc(CN2CCC/C=C/CC(Cl)(Cl)C2=O)cc1	31.6 µM (inactive)	38.8 µM (inactive)	56.6 µM (inactive)	29.2 µM (inactive)		24.7 µM (inactive)	49.4 µM (inactive)	31.4 µM (inactive)	
CC1=CC(=O)C(=O)C2=C1OC1(C2)C(C)CCC2C3(C)CCC(O)C(C)(C)C3CCC21C (stereo not drawn)	20.1 µM (inactive)	24.9 µM (inactive)		18.4 µM (inactive)	18.2 µM (inactive)	14.9 µM (inactive)	18.7 µM (inactive)	15.5 µM (inactive)	
Cc1ccc(S(=O)(=O)N/N=C/C(C)C)cc1	> 100 µM (inactive)	> 100 µM (inactive)	> 100 µM (inactive)	> 100 µM (inactive)		> 100 µM (inactive)	> 100 µM (inactive)	> 100 µM (inactive)	> 100 µM (inactive)
COc1cc2c(oc(=O)c3c4oc([Si](C)(C)C)cc4cc(OC)c23)c2cccc(OCc3ccccc3)c12	55 µM (inactive)	25.3 µM (inactive)	28 µM (inactive)	48.2 µM (inactive)	8.32 µM (inactive)	50.6 µM (inactive)	> 66.1 µM (inactive)	27.2 µM (inactive)	
O=C(Nc1nnc(S)[nH]1)C(=O)C(C(=O)c1ccc2ccccc2c1)C1OC(=O)c2ccccc21 (stereo not drawn)	19.5 µM (inactive)	25.5 µM (inactive)	0.305 µM (active)	13.8 µM (inactive)	2.09 µM (inactive)	12.2 µM (inactive)	35.3 µM (inactive)	12.1 µM (inactive)	21.8 µM (inactive)
CCCCC(=O)OC[n+]1ccc2c(C)c3[nH]c4ccc(OC)cc4c3c(C)c2c1	0.32 µM (active)	0.103 µM (active)		0.684 µM (active)		0.705 µM (active)	0.377 µM (active)	0.619 µM (active)	0.345 µM (active)
C/C(=C\CC[C@]1(C)OC(C)(C)OC1CC/C(C)=C/CO[Si](c1ccccc1)(c1ccccc1)C(C)(C)C)CC/C=C/CO[Si](C)(C)C(C)(C)C (stereo partly drawn)	> 100 µM (inactive)	> 100 µM (inactive)		> 100 µM (inactive)		> 100 µM (inactive)	> 100 µM (inactive)		
CS(=O)(=O)OCCCOS(C)(=O)=O	> 100 µM (inactive)	> 100 µM (inactive)	> 100 µM (inactive)	> 100 µM (inactive)	> 100 µM (inactive)	> 100 µM (inactive)	> 100 µM (inactive)	> 100 µM (inactive)	
Cc1cc(Cl)ccc1C1OC(=O)c2c1ccc1ccccc21 (stereo not drawn)	> 100 µM (inactive)	> 100 µM (inactive)		> 100 µM (inactive)	> 100 µM (inactive)		> 100 µM (inactive)	74.1 µM (inactive)	
O=C1c2ccccc2C(=O)N1C/C=N/NS(=O)(=O)c1ccc(Br)cc1	> 100 µM (inactive)	> 100 µM (inactive)	> 100 µM (inactive)	> 100 µM (inactive)	> 100 µM (inactive)	51.6 µM (inactive)	> 100 µM (inactive)	> 100 µM (inactive)	> 100 µM (inactive)
COC(=O)CC(=O)OC1C[C@@H]2CCC3C(C)(C)CCC[C@]3(C)C23CC[C@@]1(C)C3 (stereo partly drawn)	18.8 µM (inactive)			19.1 µM (inactive)	19 µM (inactive)	20.2 µM (inactive)	20 µM (inactive)		
C=CC(=O)c1ccc2c(c1)OCCOCCOCCOCCOCCO2	16.4 µM (inactive)	15.7 µM (inactive)	16.1 µM (inactive)	17.8 µM (inactive)	15.3 µM (inactive)	19.3 µM (inactive)	30.2 µM (inactive)	16.9 µM (inactive)	
c1cnc2c3[nH]cc4[nH]c5ccccc5c4c-3nc2c1	37.8 µM (inactive)	72.9 µM (inactive)		> 100 µM (inactive)	> 100 µM (inactive)	> 100 µM (inactive)	76.2 µM (inactive)	68.1 µM (inactive)	
N#C/C(=C1\OC(=O)C(c2ccc(Br)cc2)=C1O)c1ccc(Br)cc1	15.8 µM (inactive)	21.3 µM (inactive)	13.5 µM (inactive)	14.6 µM (inactive)	12.9 µM (inactive)	12.8 µM (inactive)	17.5 µM (inactive)	10.2 µM (inactive)	15.4 µM (inactive)
O=C1/C(=N\O)C2CCC1C2 (stereo not drawn)		> 100 µM (inactive)	> 100 µM (inactive)	> 100 µM (inactive)		> 100 µM (inactive)	> 100 µM (inactive)	> 100 µM (inactive)	
Cc1cc(Cl)ccc1NC(=O)C(=O)Cc1nc2ccccc2o1	> 100 µM (inactive)	> 100 µM (inactive)	> 100 µM (inactive)	> 100 µM (inactive)	> 100 µM (inactive)	> 100 µM (inactive)	> 100 µM (inactive)	> 100 µM (inactive)	> 100 µM (inactive)
Nc1nc(S)nc(C(=O)Nc2nccs2)c1-c1ccccc1	> 100 µM (inactive)	> 100 µM (inactive)	> 100 µM (inactive)	> 100 µM (inactive)	> 100 µM (inactive)	> 100 µM (inactive)	> 100 µM (inactive)	> 100 µM (inactive)	
CN1NC(c2ccccc2)=C(C#N)C(=O)CC1c1ccccc1Cl (stereo not drawn)	61.4 µM (inactive)	> 100 µM (inactive)	67.3 µM (inactive)		> 100 µM (inactive)	> 100 µM (inactive)		> 100 µM (inactive)	> 100 µM (inactive)
CCN(CC)Cc1c(/C=C\c2cc(OC)c(OC)c(OC)c2)ccc(OC)c1O	4.09 µM (inactive)	2.2 µM (inactive)	> 100 µM (inactive)	3.22 µM (inactive)	4.08 µM (inactive)	2.23 µM (inactive)	3.52 µM (inactive)	5.53 µM (inactive)	
COc1ccc2c(c1)OC[C@@H]1c3cc4c(cc3O[C@H]21)OCO4	> 100 µM (inactive)	> 100 µM (inactive)	37.2 µM (inactive)		> 100 µM (inactive)	> 100 µM (inactive)	> 100 µM (inactive)	> 100 µM (inactive)	
CC(=O)OC1CCn2nnc(CO)c21 (stereo not drawn)	> 100 µM (inactive)	> 100 µM (inactive)	> 100 µM (inactive)	> 100 µM (inactive)	> 100 µM (inactive)	> 100 µM (inactive)	> 100 µM (inactive)	> 100 µM (inactive)	
CCOC(=O)Cn1c(=O)[nH]c(=O)c2[nH]cnc21	> 100 µM (inactive)	> 100 µM (inactive)	> 100 µM (inactive)	> 100 µM (inactive)		> 100 µM (inactive)	> 100 µM (inactive)	> 100 µM (inactive)	> 100 µM (inactive)
O=[N+]([O-])c1ccc(-c2noc(-c3ccc(Cl)cc3)c2C2=NCCN2)cc1	> 100 µM (inactive)		94.2 µM (inactive)	> 100 µM (inactive)	> 100 µM (inactive)		> 100 µM (inactive)	> 100 µM (inactive)	
COc1ccc(-c2cc(C(=O)Nc3cc(C(F)(F)F)cc(C(F)(F)F)c3)c3ccccc3n2)cc1	11.4 µM (inactive)	8.36 µM (inactive)	17.7 µM (inactive)	17.2 µM (inactive)	7.31 µM (inactive)	6.56 µM (inactive)	7.08 µM (inactive)	8.83 µM (inactive)	
